# Data taken from patent US20100063026A1, “ANTIBACTERIAL QUINOLINE DERIVATIVES” (priority 2007, published 2010).
# Assays:
# M. smegmatis ATCC607 = test: In-vitro anti-bacterial activity against strain M. smegmatis ATCC607; conditions: for IC90 MSM 1 ATCC607: 90% inhibitory concentration for bacterial growth, 48 hours, 37° C., Alamar Blue fluorescence; for IC90: Mycolicibacterium smegmatis, ATCC607, 48 h, read-out: IC90 MSM 1 ATCC607, 90% inhibitory concentration for bacterial growth, 37° C., Alamar Blue fluorescence
# Experimental: Flat-bottom, sterile 96-well plastic microtiter plates were filled with 180 μl of sterile deionized water, supplemented with 0.25% BSA. Subsequently, stock solutions (7.8× final test concentration) of compounds were added in 45 μl volumes to a series of duplicate wells in column 2 so as to allow evaluation of their effects on bacterial growth. Serial five-fold dilutions (45 μl in 180 μl) were made directly in the microtiter plates from column 2 to 11 using a customised robot system (Zymark Corp., Hopkinton, Mass.). Pipette tips were changed after every 3 dilutions to minimize pipetting errors with high hydrophobic compounds. Untreated control samples with (column 1) and without (column 12) inoculum were included in each microtiter plate. Approximately 250 CFU per well of bacteria inoculum, in a volume of 100 μl in 2.8× Mueller-Hinton broth medium, was added to the rows A to H, except column 12. The same volume of broth medium without inoculum was added to column 12 in row A to H. The cultures were incubated at 37° C. for 48 hours in a humidified 5% CO2 atmosphere (incubator with open air valve and continuous ventilation). At the end of incubation, two days after inoculation, the bacterial growth was quantitated fluorometrically. Therefore Alamar Blue (10×) was added to all wells in a volume of 20 μl and plates were incubated for another 2 hours at 50° C.
# The fluorescence was read in a computer-controlled fluorometer (Cytofluor, Biosearch) at an excitation wavelength of 530 nm and an emission wavelength of 590 nm (gain 30). The percentage growth inhibition achieved by the compounds was calculated according to standard methods and expressed as IC90 (μg/ml) which defines the 90% inhibitory concentration for bacterial growth.
# [1] = system: Streptococcus pneumoniae (ATCC6305); test: Microtitre plate IC90 determination against non-mycobacterial strains: S. pneumoniae; format: cell-based; conditions: 90% inhibitory concentration for bacterial growth, 37° C., resazurin fluorescence; for IC90 SPN 1 6305: 24 hours; for IC90: Streptococcus pneumoniae, ATCC6305, 24 h, read-out: IC90 SPN 1 6305
# Experimental: (§1) The bacteria used in this study were grown overnight in flasks containing 100 ml Mueller-Hinton Broth (Becton Dickinson-cat. no. 275730) in sterile de-ionized water, with shaking, at 37° C. Stocks (0.5 ml/tube) were stored at -70° C. until use. Bacteria titrations were performed in microtiter plates to detect the TCID50, in which the TCID50 represents the dilution that gives rise to bacterial growth in 50% of inoculated cultures. In general, an inoculum level of approximately 100 TCID50 was used for susceptibility testing. […] Therefore resazurin (0.6 mg/ml) was added in a volume of 20 μl to all wells 3 hours after inoculation, and the plates were re-incubated overnight. A change in colour from blue to pink indicated the growth of bacteria.
# [2] = system: Staphylococcus aureus (ATCC29213); test: Microtitre plate IC90 determination against non-mycobacterial strains: S. aureus; format: cell-based; conditions: 90% inhibitory concentration for bacterial growth, 37° C., resazurin fluorescence; for IC90 STA 1 B29213: 24 hours; for IC90: Staphylococcus aureus, ATCC29213, 24 h, read-out: IC90 STA 1 B29213
# Experimental: as §1
# [3] = system: Mycobacterium tuberculosis (strain H37RV); test: In-vitro method for testing compounds against M. tuberculosis; format: cell-based; conditions: 90% inhibitory concentration for bacterial growth, 7 days, 37° C., Resazurin fluorescence; for IC90: Mycobacterium tuberculosis, H37RV, 168 h, read-out: IC90 MTB 1 H37RV
Structure (SMILES),IC90 MSM 1 ATCC607 (M. smegmatis ATCC607),IC90 SPN 1 6305 [1],melting point,IC90 STA 1 B29213 [2],IC90 MTB 1 H37RV [3],IC90 (M. smegmatis ATCC607),IC90 [1],IC90 [2],IC90 [3]
"COc1nc2ccc(Br)cc2cc1C(c1ccccc1)C(O)(CCCCN1CCC(N2CCCCC2)CC1)CCc1ccccc1 (single isomer, unassigned) [Compound 11]",12.2 µg/mL,10.9 µg/mL,164 °C,10.9 µg/mL,–,–,–,–,–
"COc1nc2ccc(Br)cc2cc1C(c1ccccc1)C(O)(CCCCN(C)C(=N)N)c1ccccc1 (single isomer, unassigned) [Compound 2]",1.8 µg/mL,2.2 µg/mL,–,1.8 µg/mL,2.5 µg/mL,–,–,–,–
"COc1nc2ccc(Br)cc2cc1C(c1ccccc1)C(O)(CCCCN1CCCNCC1)c1ccc2ccccc2c1 (single isomer, unassigned) [Compound 33]",–,–,119 °C,–,–,0.4 µg/mL,0.5 µg/mL,2 µg/mL,–
"COc1nc2ccc(Br)cc2cc1C(c1ccccc1)C(O)(CCCCN1CCC(N2CCCCC2)CC1)c1ccc2ccccc2c1 (single isomer, unassigned) [Compound 29]",2.2 µg/mL,0.8 µg/mL,177 °C,5.0 µg/mL,–,–,–,–,–
COc1nc2ccc(Br)cc2cc1C(c1ccccc1)C(O)(CCCCN1CC2CC1CN2Cc1ccccc1)c1ccc2ccccc2c1 (centres unmarked) [Compound 23],0.5 µg/mL,0.2 µg/mL,–,2.3 µg/mL,–,–,–,–,57.7 µg/mL
"COc1nc2ccc(Br)cc2cc1C(c1ccccc1)C(O)(CCCCN1CC2CC1CN2CCc1ccccc1)c1ccc2ccccc2c1 (single isomer, unassigned) [Compound 25]",1.7 µg/mL,0.5 µg/mL,137 °C,2.3 µg/mL,–,–,–,–,–
"COc1nc2ccc(Br)cc2cc1C(c1ccccc1)C(O)(CCCCc1ccccc1)CCCCN1CC2CC1CN2Cc1ccccc1 (single isomer, unassigned) [Compound 17]",0.7 µg/mL,0.8 µg/mL,–,2.3 µg/mL,–,–,–,–,–
"COc1nc2ccc(Br)cc2cc1C(c1ccccc1)C(O)(CCCCN1CC2CC1CN2Cc1ccccc1)c1ccc2ccccc2c1 (single isomer, unassigned) [Compound 21]",5.8 µg/mL,0.6 µg/mL,–,2.3 µg/mL,–,–,–,–,–
"COc1nc2ccc(Br)cc2cc1C(c1ccccc1)C(O)(CCCCN1CCN(C2CCN(Cc3ccccc3)C2)CC1)c1ccc2ccccc2c1 (single isomer, unassigned) [Compound 30]",2.5 µg/mL,2.5 µg/mL,–,2.5 µg/mL,–,–,–,–,–
"COc1nc2ccc(Br)cc2cc1C(c1ccccc1)C(O)(CCCCN1CCN(C2CCN(Cc3ccccc3)C2)CC1)c1ccc2ccccc2c1 (single isomer, unassigned) [Compound 32]",5.6 µg/mL,2.5 µg/mL,–,2.5 µg/mL,–,–,–,–,–
"COc1nc2ccc(Br)cc2cc1C(c1ccccc1)C(O)(CCCCN1CCCNCC1)c1ccccc1 (single isomer, unassigned) [Compound 47]",–,–,–,–,–,1.9 µg/mL,0.9 µg/mL,1.9 µg/mL,–
COc1nc2ccc(Br)cc2cc1C(c1ccccc1)C(O)(CCCCN1CC2CC1CN2Cc1ccccc1)c1ccc2ccccc2c1 (centres unmarked) [Compound 22],–,2.9 µg/mL,–,9.2 µg/mL,–,0.6 µg/mL,–,–,–
"COc1nc2ccc(Br)cc2cc1C(c1ccccc1)C(O)(CCCCN1CC2CC1CN2Cc1ccccc1)CCc1ccccc1 (single isomer, unassigned) [Compound 12]",2.2 µg/mL,–,–,11.2 µg/mL,–,–,2.2 µg/mL,–,–
"COc1nc2ccc(Br)cc2cc1C(c1ccc(Cl)cc1)C(O)(CCCCN1CC2CC1CN2Cc1ccccc1)c1ccc2ccccc2c1 (single isomer, unassigned) [Compound 36]",–,–,–,53.9 µg/mL,–,2.7 µg/mL,0.9 µg/mL,–,–
"COc1nc2ccc(Br)cc2cc1C(c1ccccc1)C(O)(CCCCCN1CCCN(C)CC1)c1ccc2ccccc2c1 (single isomer, unassigned) [Compound 55]",2.1 µg/mL,0.4 µg/mL,–,2.1 µg/mL,–,–,–,–,–
COc1nc2ccc(Br)cc2cc1C(c1ccccc1)C(O)(CCCCN(C)CCc1ccccn1)c1ccccc1 (centres unmarked) [Compound 8],2.0 µg/mL,2.2 µg/mL,–,2.0 µg/mL,–,–,–,–,–
"COc1ccc(N2CCN(CCCCC(O)(c3ccc4ccccc4c3)C(c3ccccc3)c3cc4cc(Br)ccc4nc3OC)CC2)cc1 (single isomer, unassigned) [Compound 26]",–,–,–,–,–,18.4 µg/mL,18.4 µg/mL,18.4 µg/mL,–
"COc1nc2ccc(Br)cc2cc1C(c1ccccc1)C(O)(CCCCN(C)C(=N)N)c1ccccc1 (single isomer, unassigned) [Compound 1]",–,–,–,–,–,1.8 µg/mL,2.2 µg/mL,2 µg/mL,4 µg/mL
"COc1nc2ccc(Br)cc2cc1C(c1ccccc1)C(O)(CCCCN1CC2CC1CN2Cc1ccccc1)c1ccccc1 (single isomer, unassigned) [Compound 49]",2.1 µg/mL,0.3 µg/mL,–,2.1 µg/mL,–,–,–,–,–
COc1nc2ccc(Br)cc2cc1C(c1ccccc1)C(O)(CCCCN1CCCN(C)CC1)c1ccc2ccccc2c1 (centres unmarked) [Compound 35a],0.9 µg/mL,0.4 µg/mL,–,2.1 µg/mL,–,–,–,–,–
COc1nc2ccc(Br)cc2cc1C(c1ccccc1)C(O)(CCCCN(C)CCc1ccccn1)c1ccccc1 (centres unmarked) [Compound 6],–,–,–,–,–,2 µg/mL,2.2 µg/mL,2 µg/mL,–
COc1nc2ccc(Br)cc2cc1C(c1ccccc1)C(O)(CCCCN1CCCN(C)CC1)c1ccc2ccccc2c1 (centres unmarked) [Compound 34b],2.1 µg/mL,2.1 µg/mL,–,–,–,–,–,2.1 µg/mL,–
"CN1CCCN(CCCCC(O)(c2ccc3ccccc3c2)C(c2ccccc2)c2cc3cc(Br)ccc3[nH]c2=O)CC1 (single isomer, unassigned) [Compound 50]",2.3 µg/mL,–,210 °C,10.1 µg/mL,–,–,4.5 µg/mL,–,–
"COc1nc2ccc(Br)cc2cc1C(c1ccccc1)C(O)(CCCCN1CCN(C(C)=O)CC1)c1ccccc1 (single isomer, unassigned) [Compound 3]",–,–,–,–,–,4.9 µg/mL,9.8 µg/mL,61.7 µg/mL,–
"COc1nc2ccc(Br)cc2cc1C(c1ccccc1)C(O)(CCCCN1CC2CC1CN2Cc1ccccc1)CCCc1ccccc1 (single isomer, unassigned) [Compound 14]",–,–,–,–,–,3.6 µg/mL,2.6 µg/mL,11.4 µg/mL,–
"COc1nc2ccc(Br)cc2cc1C(c1ccccc1)C(O)(CCCCN1CC2CC1CN2CCc1ccccc1)c1ccc2ccccc2c1 (single isomer, unassigned) [Compound 24]",–,2.1 µg/mL,–,11.7 µg/mL,–,2.3 µg/mL,–,–,–
"COc1nc2ccc(Br)cc2cc1C(c1ccccc1)C(O)(CCCCN1CC2CC1CN2Cc1ccccc1)CCc1ccccc1 (single isomer, unassigned) [Compound 13]",5.6 µg/mL,2.5 µg/mL,–,2.2 µg/mL,–,–,–,–,–
COc1nc2ccc(Br)cc2cc1C(c1ccccc1)C(O)(CCCCN(C)CCc1ccccn1)c1ccccc1 (centres unmarked) [Compound 9],2.0 µg/mL,2.2 µg/mL,–,2.0 µg/mL,–,–,–,–,–
